Where “and” joins values, the source holds several entries; their conditions need not be identical. Equal entries are not always repeated.
Experiments:
[1] = EntF* in serum of untreated mice, RP-UPLC-TQ-MS (LC1-MS1); type: in vivo, C57BL/6 mice; conditions: for EntF* concentration (pM) LC1-MS1: mouse serum, LOQ = 100 pM, below: set at 0
Protocol: After a 30 min incubation on ice, blood was centrifuged at 1000g for 10 min at room temperature. The supernatant (serum) was then transferred to fresh tubes and stored at − 35 °C until use.
Fifty microliters of serum were mixed with 150 μL 0.5% formic acid in acetonitrile. After sonication for 5 min, samples were vortexed for 5 s, then heated for 30 s at 100 °C. The solution was vortexed and centrifuged for 20 min at 20,000g at 4 °C. The supernatant was purified using solid phase extraction (SPE) on HyperSep C18 plates (Thermo Fisher Scientific, Belgium), previously conditioned with acetonitrile and equilibrated with 75% acetonitrile in water, containing 0.375% formic acid. After loading 150 μL of each sample, 120 μL eluent were collected and organic solvents evaporated using nitrogen (1 L/min) for 5 min. The resulting samples were further diluted with 30 μL of BSA-based anti-adsorption solution, and analyzed by LC-MS.
EntF* was detected and quantified on a Waters Acquity® UPLC H-class system, connected to a Waters Xevo™ TQ-S triple quadrupole mass spectrometer with electrospray ionization (operated in positive ionization mode). Autosampler tray and column oven were kept at 10 ± 5 °C and 60 ± 5 °C, respectively. Chromatographic separation was achieved on a Waters Acquity® UPLC BEH Peptide C18 column (300 Å, 1.7 μm, 2.1 mm × 100 mm). The mobile phases consisted of 93/2/5 water/acetonitrile/DMSO (V/V/V) containing 0.1% formic acid (mobile phase A) and 2/93/5 water/acetonitrile/DMSO (V/V/V) containing 0.1% formic acid (mobile phase B), and the flow rate was set to 0.5 mL/min. A 10-μL aliquot from each sample was injected. The gradient program started with 80% of mobile phase A for 1 min, followed by a linear gradient to 40% of mobile phase A for 3.5 min. Gradient was then changed to 14.2% mobile phase A at 5 min, followed by a 1 min equilibration, before starting conditions were applied. EntF* retention time was between 4.25 and 4.45 min.
An optimized capillary voltage of 3.00 kV, a cone voltage of 20.00 V, and a source offset of 50.0 V were used. Acquisition was done in the MRM mode. The selected precursor ion for EntF* was m/z 865.7 with two selected product ions at m/z 202.08 (36 eV, b2 fragment) as quantifier and m/z 315.17 (31 eV, b3 fragment) as qualifier.
A sample was considered positive for the presence of EntF* when the following criteria were met: correct retention time, quantifier/qualifier peak area ratio between 2.0 and 4.0, both quantifier and qualifier peaks with a signal-to-noise ratio > 3.0, and a peptide concentration > 100 pM.

[2] = test system: E-cadherin expression in HCT-116 cells; test: Western blot of E-cadherin expression, CXCR4-negative HCT-116 cells; type: cell-based
Protocol: HCT-8, HT-29, and HT-116 cells were grown in DMEM medium supplied with 10% fetal bovine serum (FBS) and 1% penicillin-streptomycin. Caco-2 cells were grown in DMEM medium supplied with 10% FBS, 1% non-essential amino acid NEAA), and 1% penicillin-streptomycin. Cells were cultured at 37 °C and 5% CO2. As cells reached confluency, they were detached using 0.25% Trypsin-EDTA.
For Western blot analyses, HCT-8 (n = 15), HCT-116 (n = 12), Caco-2 (n = 6), and HT-29 (n = 12) cells were seeded in 6-well plates at a density of 1 × 10^6 cells/well. Twenty-four hours after seeding, all cell lines were treated with 1 μM EntF* or a placebo solution. HCT-8 cells were also tested for responsiveness to 1 μM EntF* synthetic alanine-derived analogs. For antagonist activity analysis, HCT-8 cells were treated with 1 μM Nef-M1 or 1 μM EntF*A1 alone or in combination with 500 nM EntF*. After 24 h, cells were detached from the surface and lysed in RIPA buffer (Thermo Scientific). Protein concentration was determined using the modified Lowry protein assay kit (Thermo Scientific), according to the manufacturer’s instructions. Protein samples were diluted to the same concentration (4 μg/μL) with water and diluted again 1:1 using 2x Laemmli buffer. After that, samples were boiled for 5 min at 95 °C to denature proteins and centrifuged for 5 min at 16,000g; supernatants were used for Western blot analyses. Equal amounts of total protein (20 μg/lane) were separated by SDS-PAGE on an Any kD^TM gel (Bio-Rad ) and then transferred to a PVDF membrane. Before incubation with antibodies, non-specific binding sites on the membranes were blocked using 5% skimmed milk solution (1 h). TBS buffer with 0.05% Tween 20 was used for all washing steps. Membranes were incubated overnight at 4 °C with an anti-E-cadherin primary antibody (1/1000 dilution). An HRP-conjugated anti-rabbit antibody (1/2000 dilution, 1 h incubation) was used for chemiluminescent detection. Membranes were incubated with the detection substrate for 5 min and signal detection was performed using the ChemiDoc EZ imager and Image Lab software (Bio-Rad). Signal intensity was normalized against the total protein content in each lanes.

[3] = test system: tumor nodules in the lungs; test: Orthotopic mouse model: histopathological evaluation of lungs; type: in vivo, female athymic nude mice (Swiss nu/nu)
Protocol: Six-week-old female athymic nude mice (Swiss nu/nu) were anesthetized, and a minimally invasive midline laparotomy was performed to localize the cecum. The cecum was then gently pulled out, and luciferase-transfected HCT-8/E11 cells (1 × 10^6 cells) in 20 μL serum-free DMEM medium with Matrigel (1:1) were injected into the cecal wall. Before implantation, cells were treated with EntF* (10^2 nM), Phr0662 (10^2 nM), vehicle (PBS), or TGFα positive control (0.1 μg mL^−1) solutions for 5 days. The cecum was then carefully placed back into the abdominal cavity and the surgical incision was closed with two layers of sutures with PDS 6-0. […] Once a week, mice were examined for tumor growth and metastases using bioluminescent imaging with the IVIS Lumina II (Perkin Elmer, Belgium) after i.p. injection with 200 μL luciferin (150 mg kg^−1). After 6 weeks, mice were euthanized using cervical dislocation, and the liver, diaphragm, lungs, cecum, duodenum, and peritoneum were macroscopically examined for the presence of tumor nodules. Liver and lung tissues were then fixed in formalin for 24 h and stored in 70% ethanol for maximum 3 days before embedding in paraffin. Next, a hematoxylin and eosin (H&E) staining was performed on 8 μm sections, and 3 sections per mouse were visualized using microscopy. Slides from tumor-bearing mice were analyzed by two blinded, independent investigators using the scoring system described in Additional file 5: Table S3. In case of differences, slides were scored by a third blinded, independent investigator for consensus.

## CC(C)C[C@@H]1NC(=O)[C@H](CO)NC(=O)[C@H](Cc2ccccc2)NC(=O)[C@H](C(C)C)NC(=O)[C@@H](NC(=O)[C@H](CCC(=O)O)NC(=O)[C@@H](NC(=O)[C@H](CC(C)C)NC(=O)[C@H](CC(N)=O)NC(=O)[C@@H](N)CO)C(C)C)CSSC[C@@H](C(=O)N[C@@H](CC(N)=O)C(=O)O)NC(=O)[C@H](CCCCN)NC(=O)[C@H](CCCCN)NC(=O)[C@H](Cc2ccccc2)NC1=O (single isomer, unassigned) [EntF*]
[1]; All mice average (<LoD => 0)
  in vivo exposure, average: 0.019 nM
[1]; All mice average (<LoD => 0), time 1440 min
  in vivo exposure, Exposure: 27.5 nM·min
[1]; Natural in vivo exposure, average of all samples, < LOD: set at 0 pM
  Concentration (pM), average: 19.1243 pM
[1]; Natural in vivo exposure, sample 10809_069_205
  Concentration (pM): 107.331 pM
[1]; Natural in vivo exposure, sample 10809_069_269
  Concentration (pM): 431.362 pM
[1]; Natural in vivo exposure, sample 10809_069_276
  Concentration (pM): 567.385 pM
[1]; Natural in vivo exposure, sample 10809_069_296
  Concentration (pM): 136.998 pM
[1]; all samples (n=35), samples < LOQ counted as zero
  EntF* concentration in mouse serum, Average (pM), All: 328.6 pM
[1]; endogenous level, six of 35 untreated C57BL/6 mice, LOQ 100 pM, LC1-MS1
  amount of EntF* detected in the serum of positive mice: above 100 pM
[1]; sample 20181011S4
  EntF* concentration (pM) LC1-MS1: 389 pM
[1]; sample 20181011S7
  EntF* concentration (pM) LC1-MS1: 2146 pM
[1]; sample 20181011S9
  EntF* concentration (pM) LC1-MS1: 3127 pM
[1]; sample 20181011S12
  EntF* concentration (pM) LC1-MS1: 2489 pM
[1]; sample 20181011S16
  EntF* concentration (pM) LC1-MS1: 3148 pM
[1]; sample 20181011S18
  EntF* concentration (pM) LC1-MS1: 200 pM
[2]; CXCR4-negative cells, 24 h, n = 12
  effect on E-cadherin expression in HCT-116 cells: no decrease
[2]; HCT-116 cells, average of n = 12
  Relative E-cadherin level: 103.8
[3]; 6 weeks of treatment, H&E histopathological score, n = 30 EntF*, n = 8 PBS
  number of tumor nodules in the lungs compared to the vehicle: significantly higher number of tumor nodules
[3]; individual samples, one line per sample
  Histology scoring LUNGS, Scoring person 1 (ND): 3 and 4 and 0 and 1
[3]; per group
  Histology scoring LUNGS, conclusion per group: 1
